One series has as its system Jurkat. Nature of the series: CellTiter-Glo Luminescent Cell Viability Assay, half inhibitory concentration (IC50) on tumor cell proliferation. Format: cell-based. To be noted: Homo sapiens, Jurkat cells, 72 h treatment. The gist of the method: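 Jurkat cells seeded at 20,000 cells/well in serum-containing RPMI1640, treated after 24 h with serially diluted compound for 72 h at 37 °C, 5% CO2. Viability read by CellTiter-Glo luminescence; IC50 calculated from growth-inhibition curves.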
(Cellular ATP, detected with luciferase, serves as a proxy for viable cell number.)

A further series deals with HL60 tumor cells. As to the kind of experiment: In vitro cytotoxicity assay against tumor cells (DAPI staining, flow cytometry). The class given is cell-based. To be noted: 10 nM, 4th day. Here is the method: (§1) The tumor cells used herein were cultured in a cell culture medium at 37° C. in an incubator with 5% CO2, where the cell culture medium was supplemented with 10% FBS, as well as penicillin at a final concentration of 100 U/mL and streptomycin at a final concentration of 100 μg/mL. Prior to experimentation, all cells used were identified as correct cells by STR cells, and were negative for mycoplasma through routine testing.
(§2) MOLT4 and HL60 tumor cells were seeded separately in 12-well plates containing 1 mL of RPMI1640 medium, with a cell seeding density of 0.5×10^6 cells/mL. On the second day, the parent inhibitor FK866 and the compounds SIAIS630120 and SIAIS630121 of the present disclosure were individually dissolved in DMSO to obtain stock solutions of the respective compounds at a concentration of 10 μM. Subsequently, 1 μL of the 10 μM compound stock solution was added to 1 mL of cell culture medium to achieve a final concentration of 10 nM. The cells were treated continuously for 4 days, and cell viability was measured once daily during this period. Specifically, cells were sampled once a day, adjusted to a concentration of 1×10^6/mL using a cell staining buffer, stained with 4′,6-diamidino-2-phenylindole dihydrochloride (DAPI) (1:250), and then analyzed with a flow cytometer. Initially, the cells were gated based on differences in cell size, followed by DAPI staining to gate for dead cells. Finally, the cytotoxic efficiency was assessed by calculating the DAPI-positive ratio.
For orientation: In flow cytometry, cells or beads pass a laser one at a time.

The target of series [1] is T1, intracellular NAMPT (iNAMPT) (Homo sapiens, UniProt P43490).
T1 construct: assess the expression levels of NAMPT protein in tumor cells treated with the compounds of the present disclosure; endogenous in cells; host or cells: SW620, HT29, MCF-7, BEL7404, MOLT4, Jurkat, HL60
T1 sequence (P43490 whole entry): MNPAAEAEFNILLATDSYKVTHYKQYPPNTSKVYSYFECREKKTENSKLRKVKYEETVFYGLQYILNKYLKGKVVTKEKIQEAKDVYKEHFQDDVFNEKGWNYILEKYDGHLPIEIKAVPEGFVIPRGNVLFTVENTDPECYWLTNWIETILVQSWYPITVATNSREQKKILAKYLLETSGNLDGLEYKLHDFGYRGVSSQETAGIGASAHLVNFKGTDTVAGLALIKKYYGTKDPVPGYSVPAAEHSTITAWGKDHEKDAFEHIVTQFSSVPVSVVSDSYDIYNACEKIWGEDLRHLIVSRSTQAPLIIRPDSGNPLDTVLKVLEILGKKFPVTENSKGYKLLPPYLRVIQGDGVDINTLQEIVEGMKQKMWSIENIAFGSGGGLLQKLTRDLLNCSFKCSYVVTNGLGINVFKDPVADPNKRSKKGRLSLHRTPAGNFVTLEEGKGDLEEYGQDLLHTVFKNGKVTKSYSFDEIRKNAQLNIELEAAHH
Nature of the series: Western blot, NAMPT protein degradation (DC50) in SW620, HT29, MCF-7, BEL7404, MOLT4, Jurkat and HL60 cells. The class given is cell-based. As to conditions: tumor cells, 24 h. Here is the method: (§3) The tumor cells used herein were cultured in a cell culture medium at 37° C. in an incubator with 5% CO2, where the cell culture medium was supplemented with 10% FBS, as well as penicillin at a final concentration of 100 U/mL and streptomycin at a final concentration of 100 μg/mL.
(§4) Tumor cells were seeded at a specific cell density in a 6-well plate containing 2 mL of RPMI1640/DMEM medium. For SW620, HT29, MCF-7, and BEL7404 cells, the seeding density was 1×10^6 cells per well, respectively; for MOLT4, Jurkat, and HL60 cells, the seeding density was 0.5×10^6 cells/mL. […] After 24 hours of compound treatment, the supernatant was removed, and cells were washed with PBS. The cells were then placed on ice and treated with protein lysis buffer containing protease and phosphatase inhibitors. The lysate was centrifuged at 12,000 RPM for 15 minutes at 4° C., and the supernatant was collected. Equal amounts of protein were mixed with 5×SDS, and after denaturation at 95° C. for 5 minutes, the samples were either frozen at −20° C. or subjected to direct protein electrophoresis. SDS-PAGE was performed using equal amounts of protein, and proteins were transferred to a nitrocellulose membrane at 95 V and 4° C. for 90 minutes. After membrane transfer, the membrane was blocked with TBST containing 5% skim milk powder (purchased from Beijing Cowin Bioscience Co., Ltd.) at room temperature for 1 hour. […]
On the technique in general: Immunoblotting shows a protein as a band on a membrane.

The target of series [2] is T2, extracellular NAMPT (eNAMPT) (Homo sapiens, UniProt P43490).
T2 construct: degradation effects of compounds SIAIS630120 and SIAIS630121 of the present disclosure on eNAMPT protein in HL60 and MOLT4 cell lines; endogenous in cells; host or cells: HL60, MOLT4
T2 sequence (P43490 whole entry): as above
As to the kind of experiment: Western blot, eNAMPT protein degradation in HL60 and MOLT4 cell lines. Format: cell-based. Here is the method: as §3, §4

Another series concerns hematological tumors. As to conditions: animal models; cited from earlier work.
The conditions of series [3]: clinical trial results; cited from earlier work.
In the next series the test system is MOLT4 tumor cells. Nature of the series: In vitro cytotoxicity assay against tumor cells (DAPI staining, flow cytometry). Format: cell-based. As to conditions: 10 nM, 4th day; for cytotoxicity, more effective than FK866: difference to FK866. The procedure:
as §1, §2

As for `O=C(/C=C/c1cccnc1)NCCCCC1CCN(C(=O)c2ccccc2)CC1` [FK866], in the series with Jurkat, the IC50 (commonly the point on the concentration scale where inhibition reaches its midpoint) amounted to 0.635 nM. Also, the “cytotoxic effect (DAPI-positive ratio)” value in the series on HL60 tumor cells is recorded as “less than 40%”. In addition, the “degradation of intracellular NAMPT (iNAMPT) protein” value in series [1] is “cannot degrade iNAMPT and eNAMPT proteins”. In addition, the “degradation of extracellular NAMPT (eNAMPT) protein” value in series [2] (24 h, Western blot) was “cannot degrade iNAMPT and eNAMPT proteins”. Moreover, in series [2] (MOLT4 cells, 10 nM, FIG. 5), the “eNAMPT protein level compared to the DMSO control group” value was “higher levels of eNAMPT protein”. Moreover, the “long-term survival of mice” value with hematological tumors is reported as 80%. For the same compound, the “toxicities in clinical trial” value in series [3] is “dose-limiting toxicities such as thrombocytopenia”.
As to `O=C(/C=C/c1cccnc1)NCCCCC1CCN(C(=O)c2ccc(N3CCN(CCCCCC#Cc4cccc5c4CN(C4CCC(=O)NC4=O)C5=O)CC3)cc2)CC1` (stereo not drawn) [SIAIS630120, (E)-N-(4-(1-(4-(4-(7-(2-(2,6-dioxopiperidin-3-yl)-1-oxoisoindolin-4-yl)hept-6-yn-1-yl)piperazin-1-yl)benzoyl)piperidin-4-yl)butyl)-3-(pyridin-3-yl)acrylamide], the IC50 in the series on Jurkat came to 6.24 nM. Moreover, the “cytotoxic effect (DAPI-positive ratio)” value with HL60 tumor cells was found to be 95%. In the series with MOLT4 tumor cells, the “cytotoxicity (DAPI-positive ratio)” value was “approximately 50%” and the “cytotoxicity, more effective than FK866” value is given as 20%.
Compound `O=C(/C=C/c1cccnc1)NCCCCC1CCN(C(=O)c2ccc(N3CCN(CCCCCCC#Cc4cccc5c4CN(C4CCC(=O)NC4=O)C5=O)CC3)cc2)CC1` (stereo not drawn) [SIAIS630121, (E)-N-(4-(1-(4-(4-(8-(2-(2,6-dioxopiperidin-3-yl)-1-oxoisoindolin-4-yl)oct-7-yn-1-yl)piperazin-1-yl)benzoyl)piperidin-4-yl)butyl)-3-(pyridin-3-yl)acrylamide] had an IC50 with Jurkat of 4.83 nM. Moreover, the “cytotoxic effect (DAPI-positive ratio)” value in the series with HL60 tumor cells came out at 95%. In the series with MOLT4 tumor cells, the “cytotoxicity (DAPI-positive ratio)” value is listed as “approximately 50%” and the “cytotoxicity, more effective than FK866” value was 20%.

Source of the values: patent US20250144223A1, “PROTEIN DEGRADATION COMPOUND BASED ON NAMPT TARGET PROTEIN AND APPLICATION THEREOF” (GLUETACS THERAPEUTICS (SHANGHAI) CO., LTD., priority 2021, published 2025).
